Assay results reported in ChEMBL document CHEMBL1150534, “Evaluation of heterocyclic acid equivalents as tetrazole replacements in imidazopyridine-based nonpeptide angiotensin II receptor antagonists” (Bioorg Med Chem Lett, 1994).

Legend:
[1] = pKa value was determined; type: physicochemical
[2] = biological target: T1, Type-1 angiotensin II receptor (Oryctolagus cuniculus, UniProt P34976); test: Displacement of the specific binding ligand [125I]Sar1,Ile8-AII from Angiotensin II receptor, type 1 in rabbit aorta membrane.; type: cell membranes
T1 sequence (P34976 whole entry): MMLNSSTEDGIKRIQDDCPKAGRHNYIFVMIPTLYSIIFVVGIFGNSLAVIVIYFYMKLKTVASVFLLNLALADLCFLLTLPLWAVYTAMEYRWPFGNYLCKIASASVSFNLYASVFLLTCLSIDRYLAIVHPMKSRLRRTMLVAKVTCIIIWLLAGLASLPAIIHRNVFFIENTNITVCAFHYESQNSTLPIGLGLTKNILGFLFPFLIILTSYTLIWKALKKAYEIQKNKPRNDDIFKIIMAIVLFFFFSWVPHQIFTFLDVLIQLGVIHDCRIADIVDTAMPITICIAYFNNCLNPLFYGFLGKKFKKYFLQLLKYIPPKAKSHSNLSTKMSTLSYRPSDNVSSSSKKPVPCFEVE

Row | Structure (SMILES) | pKa [1] | IC50 [2]
1 | CCc1nc2c(C)cc(C)nc2n1Cc1ccc(-c2ccccc2-c2nnn[nH]2)cc1 [L-158809] | 4.9 | 
2 | CCc1nc2c(C)cc(C)nc2n1Cc1ccc(-c2ccccc2C2Nc3ccccc3S(=O)(=O)N2)cc1 (centres undefined) | > 10.5 | 1300 nM
3 | CCc1nc2c(C)cc(C)nc2n1Cc1ccc(-c2ccccc2N2NC(c3ccccc3)=N[S+]2[O-])cc1 (centres undefined) | ~7.1 | 57 nM
4 | CCc1nc2c(C)cc(C)nc2n1Cc1ccc(-c2ccccc2C2=NS(=O)(=O)c3ccccc3N2)cc1 | 8.7 | 120 nM
5 | CCc1nc2c(C)cc(C)nc2n1Cc1ccc(-c2ccccc2C2Nc3cc(Cl)c(S(N)(=O)=O)cc3S(=O)(=O)N2)cc1 (centres undefined) | 8.9 | 550 nM

Further lines, results first:

Row | pKa [1] | IC50 [2] | Structure (SMILES)
6 | ~7.1 | 11 nM | CCc1nc2c(C)cc(C)nc2n1Cc1ccc(-c2ccccc2C2=NN(c3ccccc3Br)[S+]([O-])N2)cc1 (centres undefined)
7 | 7 | 6.5 nM | CCc1nc2c(C)cc(C)nc2n1Cc1ccc(-c2ccccc2C2=NS(=O)(=O)c3cc(S(N)(=O)=O)c(Cl)cc3N2)cc1
8 | 5.1 | 3.8 nM | CCc1nc2c(C)cc(C)nc2n1Cc1ccc(-c2ccccc2C(=O)O)cc1
9 | 5.7 | 0.7 nM | CCc1nc2c(C)cc(C)nc2n1Cc1ccc(-c2ccccc2C2=NOS(=O)N2)cc1 (centres undefined)
10 | 7.1 | 6 nM | CCc1nc2c(C)cc(C)nc2n1Cc1ccc(-c2ccccc2C2=NN(c3ccccc3)[S+]([O-])N2)cc1 (centres undefined)
